Patent publication US12509436B2, “Benzamide derivatives as cGAS-sting pathway agonists” (Baruch S. Blumberg Institute, priority 2018, dated 2025)

Each compound was assayed on HepG2/STING/ISG54Luc reporter cells (assay: ISG54 luciferase reporter assay). Settings: Homo sapiens, MinEC5X: minimum effective concentration to induce 5-fold luciferase activity vs mock-treated controls, 4 h post treatment, read-out: Concentration required for 5-fold of IFN-[…] induction.
Assay type: cell-based
Protocol: Cell lines. Human hepatoblastoma cell line HepG2 was obtained from ATCC. Establishment of HepG2-derived cell line stably expressing human STING: HepG2 cells stably expressing wild-type human STING (HepG2/STING), were established by transduction of pCX4bsr retroviral vector (Addgene) containing the corresponding STING cDNA and selection with 10 μg/ml of blasticidin. The HepG2/STING cells were then transduced by pGreenFire ISRE lentivector system (System Biosciences) to generate a reporter cell line HepG2/STING/ISG54Luc that expresses firefly luciferase under the control of an ISG54 promoter. The pGreenFire ISRE reporter lentiviral vector contains four copies of consensus interferon stimulated response element (ISRE) sequences derived from ISG54 ISRE1, which control the expression of both green fluorescent protein (GFP) and firefly luciferase in response to IRF3 activation and IFN stimulation. HepG2/STING/ISG54Luc cells were maintained in Dulbecco's modified minimal essential medium (DMEM)/F12 (Invitrogen) supplemented with 10% fetal bovine serum, 100 U/ml penicillin and 100 μg/ml streptomycin, as well as 400 μg/ml of G418 and 2 μg/ml of puromycin.
ISG54 luciferase reporter assay: HepG2/STING/ISG54Luc reporter cells were seeded in black wall/clear bottom 96-well plates at a density of 4×10^4/well in […] of medium overnight. The test compounds were dissolved in DMSO with a stock concentration of 100 mM, and subjected to evaluation of dose-dependent effect on luciferase activity, starting from 100 μM in 2-fold dilution down to 0.78 μM. The experiments were performed in triplex wells.
The firefly luciferase activities were determined at 4 h post treatment with test compounds by using equal volume ([…]) of Steady-Glo to the culture medium (Promega), followed by luminometry in a TopCounter (Perkin Elmer).
Reporting the ISG54 promotor activation activity. The luciferase activities were converted to fold of induction relative to mock treated control. A dose-dependent curve of luciferase activities (fold of induction) for each test compound was generated using average value from the triplex wells. The activity of the test compounds was reported based on the Minimum Effective Concentration (MinEC5X) to induce 5-fold luciferase activity than that of the mock-treated controls.
Compound O=C(Nc1cccc2ccccc12)c1cc2c(cc1Br)OCO2 has an EC (5-fold induction) of at most 50 µM. With O=C(Nc1cccc2ccccc12)c1ccccc1Br the EC (5-fold induction) was 50 to 100 µM. For O=C(Nc1cccc2ccccc12)c1ccc(Cl)cc1Br, the EC (5-fold induction) was at most 50 µM. In the case of O=C(Nc1cccc2ccccc12)c1ccc(Cl)cc1F, the EC (5-fold induction) is reported as at most 50 µM. With COc1ccc(C(=O)Nc2cccc3ccccc23)c(Br)c1 the EC (5-fold induction) was at most 50 µM. O=C(Nc1cccc2ccccc12)c1ccc(Cl)cc1Cl showed an EC (5-fold induction) of at most 50 µM. Work on Cc1cc(Cl)ccc1C(=O)Nc1cccc2ccccc12 yielded an EC (5-fold induction) of at most 50 µM. With O=C(Nc1cccc2ccccc12)c1cc(F)c(F)cc1Br the EC (5-fold induction) was at most 50 µM. With O=C(Nc1cccc2ccccc12)c1cc(F)ccc1Br the EC (5-fold induction) was at most 50 µM. O=C(Nc1cccc2ccccc12)c1cccc(Cl)c1Cl was tested, and the EC (5-fold induction) was at most 50 µM. O=C(Nc1cccc2ccccc12)c1nccnc1Cl was tested, and the EC (5-fold induction) was at most 50 µM. Compound Cn1nc(C(=O)Nc2cccc3ccccc23)c2ccccc21 has an EC (5-fold induction) of at most 50 µM. Compound O=C(Nc1cccc2c1CCCC2)c1cc2c(cc1Br)OCO2 has an EC (5-fold induction) of at most 50 µM. For Cc1cccc(NC(=O)c2cc3c(cc2Br)OCO3)c1Br, the EC (5-fold induction) was at most 50 µM. O=C(Nc1cccc(Cl)c1Cl)c1cc2c(cc1Br)OCO2 showed an EC (5-fold induction) of at most 50 µM. With O=C(Nc1cccc2ccccc12)c1ccc(F)cc1Br the EC (5-fold induction) was at most 50 µM. O=C(Nc1cccc2ccccc12)c1ccc(Br)cc1Cl gave an EC (5-fold induction) of at most 50 µM. Cc1cccc(NC(=O)c2cc(F)c(F)cc2Br)c1C was tested, and the EC (5-fold induction) was 50 to 100 µM. For O=C(Nc1cccc2c1CCC2)c1cc2c(cc1Br)OCO2, the EC (5-fold induction) was at most 50 µM. In the case of O=C1CCN(C(=O)c2cc3c(cc2Br)OCO3)c2ccccc21, the EC (5-fold induction) is reported as at most 50 µM. For Cc1c(Br)cccc1NC(=O)c1cc2c(cc1Br)OCO2, the EC (5-fold induction) was at most 50 µM. With Cc1cccc(NC(=O)c2cc3c(cc2Br)OCO3)c1C the EC (5-fold induction) was at most 50 µM. Compound Cc1cccc(C)c1NC(=O)c1cc2c(cc1Br)OCO2 has an EC (5-fold induction) of at most 50 µM. For Cc1c(F)cccc1NC(=O)c1cc2c(cc1Br)OCO2, the EC (5-fold induction) was at most 50 µM. With O=C(Nc1cccc2c1CCCC2)c1cc(F)c(F)cc1Br the EC (5-fold induction) was at most 50 µM. Compound C=C(C)c1ccccc1NC(=O)c1cc2c(cc1Br)OCO2 has an EC (5-fold induction) of at most 50 µM. Work on O=C(Nc1cccc2c1CCC2)c1cc(F)c(F)cc1Br yielded an EC (5-fold induction) of at most 50 µM.
